Laboratory results reported in publication doi:10.1101/2025.09.04.674342, “Tandem association of CLOCK:BMAL1 complexes on DNA enables recruitment of CBP/p300 through multivalent interactions” (bioRxiv, 2025).
No end group written: not given here.

How the values were obtained:
CBP KIX [1] = molecular target: T1, CBP KIX (Mus musculus, UniProt P45481); experiment: Fluorescence polarization competition assay, CBP KIX:TAD WT titrated with KG-501; assay type: binding
T1 construct: mouse CBP (UniProt P45481) KIX (residues 586–672); made in house; host or cells: Rosetta (DE3) E. coli
T1 sequence (P45481 586-672): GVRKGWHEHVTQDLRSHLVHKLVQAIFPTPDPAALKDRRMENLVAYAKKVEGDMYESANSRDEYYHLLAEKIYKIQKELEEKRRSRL
Protocol: TAMRA fluorescent probe covalently attached to the N-terminus; the C-terminus of the Δswitch peptide was amidated, while the others were left as a free carboxyl group. Equilibrium binding assays (Fig. 5b) with CBP KIX, TAZ1, and TAZ2 and competition assay with CBP KIX:TAD WT titrated with KG-501 (Fig. 5i) were performed in 10 mM MES pH 6.5, 50 mM NaCl and 0.05% (v/v) Tween-20. Concentrated stocks of BMAL1 TAD probes were stored between 15–200 μM at −70°C and diluted in assay buffer to 50 nM alone (binding assays) or to 10 nM bound to 2 μM CBP KIX (competition assay) and in the presence of increasing concentrations of KG-501. Plates were incubated at room temperature for 10–20 minutes prior to analysis. Binding was monitored by changes in fluorescence polarization with an EnVision 2103 multilabel plate reader (Perkin Elmer) with excitation at 531 nm and emission at 595 nm. The Hill coefficient and equilibrium binding dissociation constant (KD) were calculated by fitting the dose-dependent change in millipolarization (Δmp) to a one-site specific binding model (binding assays) or an [inhibitor] vs. response (three parameters) model (competition assay) in Prism (GraphPad). Data shown for equilibrium binding assays are from a representative experiment (n=4 replicates) of three independent assays (Fig. 5b). […]

[2] = system: CREB-induced Per1-luc activation; experiment: Per1-luc reporter in HEK293T cells after forskolin stimulation; assay type: cell-based, human; conditions: compounds 16 hours, 10 μM forskolin 2 hours before harvest, n = 3, Fig. 5g
Protocol: HEK293T cells were purchased from ATCC (cat. #CRL-3216) were cultured in 10% DMEM (i.e. 10% (v/v) FBS) and 1X penicillin-streptomycin (Thermo Fisher) at 37°C in an incubator humidified with 5% CO2. Forskolin (CAS 66575-29-9, cat. #F3917, Sigma Aldrich), KG-501/naphthol-AS-E-phosphate (CAS 18228-17-6, cat. #70485, Sigma Aldrich), XX-650–23 (CAS 117739-40-9, cat. #AOB31725, Aobious), and 666–15 (CAS 1433286-70-4, cat. #AMBH97F07B56, Sigma Aldrich) were stored as recommended by the manufacturer and assessed by 1D NMR before use.
For Per1-luc reporter assays with inhibitors, 48-well plates with HEK293T cells were transfected with LT-1 (Mirus) and the following plasmids in duplicate: 5 ng pGL3 Per1-luciferase[8] and 395 ng empty pcDNA4 vector; for CLOCK:BMAL1 activity, 5 ng pGL3 Per1-luciferase, 100 ng pSG5 Clock, 100 ng pSG5 Bmal1, and 195 ng empty pcDNA4 vector. Cells were treated with compounds as indicated or 1% DMSO 24 hours after transfection for 16 hours prior to harvesting. For forskolin treatment, 10 μM forskolin was added 2 hours prior to harvesting. Cells were lysed in Passive Lysis Buffer ([…]) according to the protocol and luciferase activity was measured with Bright-Glo reagent ([…]) on an EnVision plate reader (Perkin Elmer). Each reporter assay was repeated at least three times.

[3] = cited from earlier work
CREB = system: CREB; set-up: method as in PMID 19810079, PMID 27211267; conditions: cited from earlier work
[4] = system: 3mut CBP KIX (Y650A, A654Q, Y658A); experiment: 15N-1H HSQC NMR titration of 15N BMAL1 TAD with 3mut CBP KIX; assay type: binding, mouse; conditions: versus WT KIX
Protocol: (§1) NMR experiments were conducted on a Varian INOVA 600-MHz spectrometer equipped with ^1H, ^13C, ^15N triple resonance, Z-axis pulsed field gradient cryoprobe. All NMR data were collected at 25°C. NMR data were processed using NMRPipe/NMRDraw[79]. ^15N-^1H HSQC spectra CBP KIX were performed in 330 μL volume in a Shigemi tube with 100 μM ^15N CBP KIX in NMR buffer (10 mM MES pH 6.5, 50 mM NaCl) and 10% (v/v) D2O in the presence of stepwise additions of concentrated stocks of BMAL1 TAD or truncated peptides. ^15N-^1H HSQC spectra of BMAL1 TAD WT or L606A/L607A were performed in 330 μL volume in a Shigemi tube with 100 μM ^15N BMAL1 TAD in NMR buffer (10 mM MES pH 6.5, 50 mM NaCl) and 10% (v/v) D2O in the presence of stepwise additions of CBP KIX (WT or 3mut), TAZ1, or TAZ2, followed by concentration in an Amicon Ultra centrifugal filter with a 3 kDa MWCO (Merck Millipore). Chemical shift assignments of BMAL1 TAD (entry 25280) and CBP KIX (entry 6750) were obtained from the Biological Magnetic Resonance Data Bank (BMRB); CBP KIX assignments at pH 5.5 were transferred to the spectrum at pH 6.5 via a 3-step pH titration. Titration data for protein interactions were analyzed with NMRViewJ (One Moon Scientific) using chemical shift perturbations defined by the equation ΔδTOT = [(Δδ^1H)^2 + (χ(Δδ^15N)^2]^½ and normalized with the scaling factor χ = 0.5[80].

WT CBP KIX = experiment: Isothermal titration calorimetry, CBP KIX WT with BMAL1 TAD; assay type: binding, mouse
Protocol: (§2) ITC measurements were obtained as previously described. Briefly, proteins were extensively dialyzed at 4°C in 10 mM MES pH 6.5, 50 mM NaCl using a 2 kDa molecular weight cutoff filter dialysis tubing (Spectrum Labs) prior to collecting ITC data. ITC was performed on a MicroCal VP-ITC calorimeter at 25°C with a stir speed of 177 rpm, reference power of 10 μCal/sec and 10 μL injection sizes. Protein ratios for the cell and syringe for the ITC assays (3 independent runs for each complex) were 220–230 μM CBP KIX WT or 3mut titrated into 20–25 μM BMAL1 TAD WT or L606A/L607A as indicated (stoichiometry (n) = 0.8–1.1). All data were best fit by a one-site binding model using Origin software.

[5] = system: 3mut CBP KIX (Y650A, A654Q, Y658A); experiment: Isothermal titration calorimetry, 3mut CBP KIX with BMAL1 TAD; assay type: binding, mouse; conditions: same conditions as WT KIX; Fig. 4b
Protocol: as §2

CBP KIX [6] = molecular target: T1, CBP KIX; experiment: 15N-1H HSQC NMR titration of 15N CBP KIX with BMAL1 TAD peptides; assay type: binding; conditions: for binding of locked switch peptides to CBP KIX by pattern of CSPs: Fig. 3d
Protocol: as §1

CBP TAZ2 = molecular target: T2, CBP TAZ2 (Mus musculus, UniProt P45481, C1776A/C1784A/C1827A/C1828A); experiment: 15N-1H HSQC NMR titration of 15N BMAL1 TAD L606A/L607A with CBP TAZ2; assay type: binding; conditions: 100 μM 15N TAD L606A/L607A; Fig. 6g,h
T2 construct: Mouse CBP (UniProt P45481) TAZ2 (residues 1764–1855); MBP; made in house; host or cells: E. coli (BL21)
T2 sequence (P45481 1764-1855 C1776A/C1784A/C1827A/C1828A): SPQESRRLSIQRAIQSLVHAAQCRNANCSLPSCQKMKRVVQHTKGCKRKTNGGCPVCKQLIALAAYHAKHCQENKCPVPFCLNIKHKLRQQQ
Protocol: as §1

CBP KIX [7] = molecular target: T1, CBP KIX; experiment: 15N-1H HSQC NMR titration of 15N BMAL1 TAD L606A/L607A with CBP KIX; assay type: binding; conditions: versus WT TAD with WT KIX
Protocol: as §1

CBP TAZ1 = molecular target: T3, CBP TAZ1 (Mus musculus, UniProt P45481); experiment: 15N-1H HSQC NMR titration of 15N BMAL1 TAD L606A/L607A with CBP TAZ1; assay type: binding; conditions: 100 μM 15N TAD L606A/L607A; Fig. 6e,f
T3 construct: Mouse CBP (UniProt P45481) TAZ1 (residues 340–439); made in house; host or cells: Rosetta (DE3) E. coli
T3 sequence (P45481 340-439): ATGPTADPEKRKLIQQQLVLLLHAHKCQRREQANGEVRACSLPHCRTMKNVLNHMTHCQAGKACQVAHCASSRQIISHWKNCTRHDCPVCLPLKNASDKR
Protocol: as §1

O=C(Nc1ccc(Cl)cc1)c1cc2ccccc2cc1OP(=O)(O)O [KG-501, naphthol-AS-E-phosphate]
IC50 (CBP KIX [1]; 2 μM CBP KIX bound to 10 nM [5,6] TAMRA-labeled minimal BMAL1 TAD probe, 10 mM MES pH 6.5, 50 mM NaCl, 0.05% Tween-20, mean from 2 replicates done in duplicate, read-out: IC50, displacement of CBP KIX from TAD probe): 222 ± 22.5 µM | Ki (CBP KIX [1]; KD = 2 μM set for the BMAL1 TAD-CBP KIX interaction, read-out: Ki calculated from the Cheng-Prusoff equation): 111 µM | Activation of Per1-luc reporter after forskolin (Fsk) stimulation [2]: moderately decreased potency relative to the others

N#Cc1ccc(NC(=O)c2cc3ccccc3cc2O)cc1 [XX-650–23]
solubility [3]: poor solubility | activity in cells relative to KG-501 (CREB): more active in cells

BMAL1 TAD: recombinant mouse BMAL1 transactivation domain, residues 579–626
reduction of affinity by mutation of the CBP KIX c-Myb site [4]: about 100 fold | Kd (WT CBP KIX; 220–230 μM CBP KIX titrated into 20–25 μM BMAL1 TAD, 10 mM MES pH 6.5, 50 mM NaCl, 25°C, 3 independent runs, one-site model, read-out: KD by ITC): ~2 µM | binding by ITC (in words) [5]: disrupted

FSDLPWAL [P625A switch, trans-locked switch peptide with P625A substitution]
binding of locked switch peptides to CBP KIX by pattern of CSPs (CBP KIX [6]; 100 μM 15N CBP KIX): can bind at the MLL1 site

FSDLPWPL-OH [switch]
KD for the CBP KIX domain estimated by fitting concentration-dependent CSPs (CBP KIX [6]; 100 μM 15N CBP KIX, 10 mM MES pH 6.5, 50 mM NaCl, 25°C, Fig. 3b): hundreds of micromolar | Kd (CBP KIX [6]; 100 μM 15N CBP KIX, 10 mM MES pH 6.5, 50 mM NaCl, 25°C, Fig. 3b, read-out: KD for the CBP KIX domain estimated by fitting concentration-dependent CSPs): > 500 µM

FSDLPWdmPL [P625dmP-switch, cis-locked switch peptide with 5,5-dimethyl L-proline at position 625]
binding of locked switch peptides to CBP KIX by pattern of CSPs (CBP KIX [6]; 100 μM 15N CBP KIX): can bind at the MLL1 site

TAD LL/AA: recombinant BMAL1 TAD (579–626) with L606A/L607A mutation of the IXXLL motif
interaction with CBP TAZ2 by 15N-1H HSQC (CBP TAZ2): retained interaction | binding by ITC (in words) (WT CBP KIX; same conditions as WT TAD, Fig. 4e): did not yield any binding heats | reduction of affinity for CBP KIX by mutation in the BMAL1 TAD helix (CBP KIX [7]): about 100 fold | changes of the 15N-1H HSQC spectrum on addition of CBP TAZ1 (CBP TAZ1): almost no changes to the spectrum

linker-switch: residues 613–626 of mouse BMAL1 (LGGPVDFSDLPWPL)
apparent affinity for CBP KIX relative to the isolated switch peptide (CBP KIX [6]; 100 μM 15N CBP KIX titrated with peptide, Fig. 3a): modestly higher apparent affinity | site of chemical shift perturbations on CBP KIX (CBP KIX [6]; peptide 100 μM, 1:1 stoichiometry with 15N CBP KIX, Fig. 2e): perturbs the MLL1 site
